Laboratory results: US20120178758A1, “STYRYL-TRIAZINE DERIVATIVES AND THEIR THERAPEUTICAL APPLICATIONS” (CALIFORNIA CAPITAL EQUITY, LLC, priority 2009, published 2012)

Key:
Format in all cases: biochemical
[1] = target: T1, c-Src kinase (Homo sapiens, UniProt P12931); test: c-Src kinase assay (KinaseProfiler / Kinase Hotspot); settings: compound at 1 μM; read-out: % Inhibition @1 μM cSrc
T1 construct: purchased Millipore (KinaseProfiler Service) / Reaction Biology Corp. (Kinase Hotspot)
Experimental: (§1) This example illustrated c-Src kinase, Aurora-A kinase, Flt3 kinase, Ret kinase and TrkA Kinase Assays of selected Compounds from this invention (referred to Daniele Fancelli et al, J. Med. Chem., 2006, 49 (24), pp 7247-7251). The KinaseProfiler™ Service Assay Protocols (Millipore) were used to test the kinase inhibiting activity of novel compounds from this invention. To do this, the buffer composition was as: 20 mM MOPS, 1 mM EDTA, 0.01% Brij-35, 5% Glycerol, 0.1% […], 1 mg/mL BSA. Test compounds were initially dissolved in DMSO at the desired concentration, then serially diluted to the kinase assay buffer. In a final reaction volume of 25 μL, Aurora-A(h) (5-10 mU) is incubated with 8 mM MOPS pH 7.0, 0.2 mM EDTA, 200 μM LRRASLG (Kemptide), 10 mM MgAcetate and [γ^33P-ATP]. The reaction was initiated by the addition of the MgATP mix. After incubation for 40 minute at room temperature, the reaction was stopped by addition of 5 μL of a 3% phosphoric acid solution. 10 μL of the reaction was then spotted onto a P30 filtermat and washed three times for 5 minutes in 50 mM phosphoric acid and once in methanol prior to drying and scintillation counting. Wells containing substrate but no kinase and wells containing a phosphopeptide control were used to set 0% and 100% phosphorylation value, repectively.
(§2) Also Kinase Hotspot™ kinase assay was used to test the compounds for IC50 or % inhibitions (Reaction Biology Corp.). Inhibitor IC50 values were determined by titration of compound at the optimal kinase concentration (Kinase EC50).

[2] = target: T2, Flt3 kinase (Homo sapiens, UniProt P36888); test: Flt3 kinase assay (KinaseProfiler / Kinase Hotspot); settings: compound at 1 μM
T2 construct: purchased Millipore (KinaseProfiler Service) / Reaction Biology Corp. (Kinase Hotspot)
T2 sequence (P36888 27-993): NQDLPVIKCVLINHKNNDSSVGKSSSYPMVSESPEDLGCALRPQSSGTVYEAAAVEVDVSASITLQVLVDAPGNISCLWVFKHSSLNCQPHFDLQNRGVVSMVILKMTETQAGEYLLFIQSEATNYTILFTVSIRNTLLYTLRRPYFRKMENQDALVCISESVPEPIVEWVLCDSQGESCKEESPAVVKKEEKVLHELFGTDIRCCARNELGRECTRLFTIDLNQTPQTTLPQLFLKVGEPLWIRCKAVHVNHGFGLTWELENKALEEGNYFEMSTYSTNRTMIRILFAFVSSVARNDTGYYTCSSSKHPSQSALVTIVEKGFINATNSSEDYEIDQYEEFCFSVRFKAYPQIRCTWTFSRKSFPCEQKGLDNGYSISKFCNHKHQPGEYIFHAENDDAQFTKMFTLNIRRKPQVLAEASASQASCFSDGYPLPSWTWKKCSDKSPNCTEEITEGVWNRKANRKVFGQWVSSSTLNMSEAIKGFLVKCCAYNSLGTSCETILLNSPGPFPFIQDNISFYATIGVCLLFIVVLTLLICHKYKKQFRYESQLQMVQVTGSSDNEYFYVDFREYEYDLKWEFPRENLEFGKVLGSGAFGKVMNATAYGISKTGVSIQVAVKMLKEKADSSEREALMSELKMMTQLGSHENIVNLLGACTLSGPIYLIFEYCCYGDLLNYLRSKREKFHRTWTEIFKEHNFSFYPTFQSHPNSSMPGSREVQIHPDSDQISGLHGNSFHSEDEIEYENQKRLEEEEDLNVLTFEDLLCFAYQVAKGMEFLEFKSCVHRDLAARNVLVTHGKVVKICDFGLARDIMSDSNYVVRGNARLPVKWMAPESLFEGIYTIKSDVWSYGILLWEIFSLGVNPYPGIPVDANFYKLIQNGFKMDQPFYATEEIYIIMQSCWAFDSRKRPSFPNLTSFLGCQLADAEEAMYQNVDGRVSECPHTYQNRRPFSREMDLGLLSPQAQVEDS
Experimental: as §1, §2

[3] = target: T3, Ret kinase (Homo sapiens, UniProt P07949); test: Ret kinase assay (KinaseProfiler / Kinase Hotspot); settings: compound at 1 μM
T3 construct: purchased Millipore (KinaseProfiler Service) / Reaction Biology Corp. (Kinase Hotspot)
T3 sequence (P07949 29-1114): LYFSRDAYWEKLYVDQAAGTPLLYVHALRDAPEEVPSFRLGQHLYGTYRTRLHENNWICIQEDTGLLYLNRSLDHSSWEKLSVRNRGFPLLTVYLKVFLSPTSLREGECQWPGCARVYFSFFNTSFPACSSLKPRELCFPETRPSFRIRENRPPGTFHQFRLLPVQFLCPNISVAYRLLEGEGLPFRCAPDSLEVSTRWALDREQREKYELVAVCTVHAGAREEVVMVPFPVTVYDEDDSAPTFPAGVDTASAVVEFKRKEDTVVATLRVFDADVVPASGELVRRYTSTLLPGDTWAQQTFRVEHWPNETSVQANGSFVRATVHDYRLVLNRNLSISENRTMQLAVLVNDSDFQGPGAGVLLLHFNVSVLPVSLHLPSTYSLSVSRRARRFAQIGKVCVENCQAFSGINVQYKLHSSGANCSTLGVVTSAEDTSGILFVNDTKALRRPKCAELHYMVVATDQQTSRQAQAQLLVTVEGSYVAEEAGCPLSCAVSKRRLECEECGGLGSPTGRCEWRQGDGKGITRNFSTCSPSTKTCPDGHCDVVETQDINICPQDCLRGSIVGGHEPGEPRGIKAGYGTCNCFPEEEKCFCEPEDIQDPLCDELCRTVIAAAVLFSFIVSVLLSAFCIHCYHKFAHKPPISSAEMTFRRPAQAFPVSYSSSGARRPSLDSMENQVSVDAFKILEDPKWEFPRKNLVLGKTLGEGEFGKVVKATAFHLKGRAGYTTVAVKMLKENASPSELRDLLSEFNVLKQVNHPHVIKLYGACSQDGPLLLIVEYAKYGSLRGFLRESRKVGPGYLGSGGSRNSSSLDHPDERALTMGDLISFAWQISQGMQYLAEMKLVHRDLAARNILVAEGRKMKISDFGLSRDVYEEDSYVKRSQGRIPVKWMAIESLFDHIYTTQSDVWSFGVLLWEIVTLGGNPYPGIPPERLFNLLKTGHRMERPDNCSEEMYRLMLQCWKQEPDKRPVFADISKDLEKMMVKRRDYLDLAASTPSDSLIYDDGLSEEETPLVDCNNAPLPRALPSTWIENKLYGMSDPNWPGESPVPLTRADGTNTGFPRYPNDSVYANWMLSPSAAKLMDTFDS
Experimental: as §1, §2

[4] = target: T4, Aurora-A(h) (Homo sapiens, UniProt O14965); test: Aurora-A kinase assay (KinaseProfiler / Kinase Hotspot); settings: compound at 1 μM; read-out: % Inhibition @1 μM Auroro-A
T4 construct: purchased Millipore (KinaseProfiler Service) / Reaction Biology Corp. (Kinase Hotspot)
T4 sequence (O14965 1-403): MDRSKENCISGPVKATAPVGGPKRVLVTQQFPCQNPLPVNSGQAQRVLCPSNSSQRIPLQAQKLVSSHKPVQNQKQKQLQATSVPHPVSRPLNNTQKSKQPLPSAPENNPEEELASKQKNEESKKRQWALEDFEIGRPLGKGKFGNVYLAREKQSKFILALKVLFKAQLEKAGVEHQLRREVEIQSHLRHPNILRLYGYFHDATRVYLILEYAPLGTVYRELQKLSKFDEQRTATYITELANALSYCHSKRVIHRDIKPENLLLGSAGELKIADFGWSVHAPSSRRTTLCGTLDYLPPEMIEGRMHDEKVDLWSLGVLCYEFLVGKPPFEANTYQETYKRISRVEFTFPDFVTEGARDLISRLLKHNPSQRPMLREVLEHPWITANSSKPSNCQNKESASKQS
Experimental: as §1, §2

[5] = target: T5, TrkA Kinase (Homo sapiens, UniProt P04629); test: TrkA kinase assay (KinaseProfiler / Kinase Hotspot); settings: compound at 1 μM
T5 construct: purchased Millipore (KinaseProfiler Service) / Reaction Biology Corp. (Kinase Hotspot)
T5 sequence (P04629 33-796): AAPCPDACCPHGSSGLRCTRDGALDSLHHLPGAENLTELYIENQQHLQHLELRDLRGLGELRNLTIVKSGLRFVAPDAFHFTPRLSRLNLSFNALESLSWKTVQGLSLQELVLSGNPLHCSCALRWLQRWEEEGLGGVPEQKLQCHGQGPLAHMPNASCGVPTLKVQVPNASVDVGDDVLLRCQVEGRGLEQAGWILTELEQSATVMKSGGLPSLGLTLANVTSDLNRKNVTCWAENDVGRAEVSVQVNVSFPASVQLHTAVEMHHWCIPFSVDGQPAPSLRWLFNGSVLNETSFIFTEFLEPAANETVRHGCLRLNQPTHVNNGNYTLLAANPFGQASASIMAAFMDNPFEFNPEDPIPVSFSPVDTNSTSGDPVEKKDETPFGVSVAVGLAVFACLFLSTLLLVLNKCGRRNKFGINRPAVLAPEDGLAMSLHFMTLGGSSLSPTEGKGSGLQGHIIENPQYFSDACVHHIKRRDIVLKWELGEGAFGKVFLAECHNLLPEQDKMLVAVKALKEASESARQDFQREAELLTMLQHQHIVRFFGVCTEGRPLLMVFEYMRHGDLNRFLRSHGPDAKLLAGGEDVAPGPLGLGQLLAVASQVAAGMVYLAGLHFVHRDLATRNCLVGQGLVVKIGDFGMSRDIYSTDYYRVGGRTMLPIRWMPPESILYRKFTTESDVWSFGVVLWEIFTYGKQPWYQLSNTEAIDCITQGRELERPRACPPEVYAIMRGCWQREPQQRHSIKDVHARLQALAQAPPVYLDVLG
Experimental: as §1, §2

T1 sequence (P12931 whole entry): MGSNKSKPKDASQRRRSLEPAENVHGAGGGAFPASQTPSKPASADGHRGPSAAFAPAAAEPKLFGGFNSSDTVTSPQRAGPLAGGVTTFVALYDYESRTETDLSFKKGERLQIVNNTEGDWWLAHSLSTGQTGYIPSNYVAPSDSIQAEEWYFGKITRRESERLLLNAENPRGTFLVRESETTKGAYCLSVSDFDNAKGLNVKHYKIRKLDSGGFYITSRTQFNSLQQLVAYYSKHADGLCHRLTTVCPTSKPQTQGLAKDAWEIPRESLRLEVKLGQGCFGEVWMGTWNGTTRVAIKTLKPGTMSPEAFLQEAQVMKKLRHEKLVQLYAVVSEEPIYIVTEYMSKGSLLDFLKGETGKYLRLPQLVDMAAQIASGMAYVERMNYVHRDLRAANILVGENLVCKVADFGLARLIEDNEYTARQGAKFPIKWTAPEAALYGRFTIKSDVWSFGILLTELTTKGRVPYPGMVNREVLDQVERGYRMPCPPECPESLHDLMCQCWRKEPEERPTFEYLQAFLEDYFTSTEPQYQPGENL

Structure (SMILES) | inhibition at 1 µM [1] [%] | inhibition at 1 µM [2] [%] | inhibition at 1 µM [3] [%] | inhibition at 1 µM [4] [%] | inhibition at 1 µM [5] [%]
Cc1cc(Nc2nc(/C=C\c3ccccc3)nc(N3CCN(C)CC3)n2)n[nH]1 [Example 4] | < 50 | 50 to 90 | < 50 | 50 to 90 | 50 to 90
Cc1cc(Nc2nc(/C=C/c3ccc(Cl)cc3)nc(N3CCN(C)CC3)n2)n[nH]1 [Example 8] | 50 to 90 | > 90 | 50 to 90 | 50 to 90 | > 90
Cc1ccc(/C=C/c2nc(Nc3cc(C)[nH]n3)nc(N3CCN(C)CC3)n2)cc1 [Example 9] | < 50 | 50 to 90 | 50 to 90 | 50 to 90 | > 90
Cc1cc(Nc2nc(/C=C/c3ccccc3Cl)nc(N3CCN(C)CC3)n2)n[nH]1 [Example 10] | 50 to 90 | > 90 | < 50 | 50 to 90 | > 90
Cc1cc(Nc2nc(/C=C/c3cccc(Cl)c3)nc(N3CCN(C)CC3)n2)n[nH]1 [Example 11] | 50 to 90 | > 90 | < 50 | 50 to 90 | > 90
Cc1cc(Nc2nc(/C=C/c3nccs3)nc(N3CCN(C)CC3)n2)n[nH]1 [Example 12] | 50 to 90 | > 90 | < 50 | 50 to 90 | 50 to 90
C/C=C/c1cc(Nc2nc(/C=C/c3ccccc3)nc(N3CCN(C)CC3)n2)n[nH]1 [Example 19] | > 90 | 50 to 90 | 50 to 90 | 50 to 90 | > 90

The remaining lines, values ahead:

inhibition at 1 µM [1] [%] | inhibition at 1 µM [2] [%] | inhibition at 1 µM [3] [%] | inhibition at 1 µM [4] [%] | inhibition at 1 µM [5] [%] | Structure (SMILES)
< 50 | 50 to 90 | 50 to 90 | 50 to 90 | > 90 | Cc1cc(Nc2nc(C#Cc3ccccc3)nc(N3CCN(C)CC3)n2)n[nH]1 [Example 3]
50 to 90 | > 90 | 50 to 90 | > 90 | > 90 | Cc1cc(Nc2nc(/C=C/c3ccccc3)nc(N3CCN(C)CC3)n2)n[nH]1 [Example 7]
50 to 90 | > 90 | < 50 | 50 to 90 | > 90 | Cc1cnc(Nc2nc(/C=C/c3ccccc3)nc(N3CCN(C)CC3)n2)s1 [Example 17]
50 to 90 | > 90 | 50 to 90 | 50 to 90 | > 90 | CN1CCN(c2nc(/C=C/c3ccccc3)nc(Nc3cc(-c4ccccc4)[nH]n3)n2)CC1 [Example 18]
